Each structure is given as a SMILES string. pIC50: −log10 of the molar value. Where a SMILES comes first, the peptide text is derived from it. Bridges are numbered along the chain shown (N, C = ends). [ ]: non-standard residue; d: D form. Aoc = NCCCCCCCC(=O)O; Ava = NCCCCC(=O)O

For the assay, the target named is Endothelin A receptor (Oryctolagus cuniculus). Briefly: Binding affinity against Endothelin A receptor in rabbit renal artery vascular smooth muscle membrane (ET-A).
The term pIC50 denotes the negative decadic logarithm of the IC50, by convention in mol/L. A low value points to a large IC50. `CC[C@H](C)[C@H](NC(=O)[C@H](CC(=O)O)NC(=O)[C@H](CC(C)C)NC(=O)[C@H](Cc1cnc[nH]1)NC(=O)[C@@H]1CSSC[C@H](N)C(=O)N[C@@H](CO)C(=O)NCCCCCCCC(=O)N[C@@H](C(C)C)C(=O)N[C@@H](Cc2ccc(O)cc2)C(=O)N[C@@H](Cc2ccccc2)C(=O)N1)C(=O)N[C@H](C(=O)N[C@@H](Cc1c[nH]c2ccccc12)C(=O)O)[C@@H](C)CC` [Trp-Ile-Ile-Asp-Leu-Hisc(Cys-Ser-Aoa-Val-Tyr-Phe-Cys)] (H-CS[Aoc]VYFCHLDIIW-OH; disulfide 1-7): the pIC50 was 5.74. Regarding `CC[C@H](C)[C@H](NC(=O)[C@H](CC(=O)O)NC(=O)[C@H](CC(C)C)NC(=O)[C@H](Cc1c[nH]cn1)NC(=O)[C@@H]1CSSC[C@H](N)C(=O)N[C@@H](CO)C(=O)NCCCCC(=O)N[C@@H](C(C)C)C(=O)N[C@@H](Cc2ccc(O)cc2)C(=O)N[C@@H](Cc2ccccc2)C(=O)N1)C(=O)N[C@H](C(=O)N[C@@H](Cc1c[nH]c2ccccc12)C(=O)O)[C@@H](C)CC` [Trp-Ile-Ile-Asp-Leu-Hisc(Cys-Ser-Apa-Val-Tyr-Phe-Cys)] (H-CS[Ava]VYFCHLDIIW-OH; disulfide 1-7), the pIC50 was 5.60. This pIC50 and that of the molecule before are within 0.2 log units of each other. The figure for `CC[C@H](C)[C@H](NC(=O)[C@H](CC(=O)O)NC(=O)[C@H](CC(C)C)NC(=O)[C@H](Cc1c[nH]cn1)NC(=O)[C@@H]1CSSC[C@H](N)C(=O)N[C@@H](CO)C(=O)N[C@@H](CO)C(=O)N[C@@H](C(C)C)C(=O)N[C@@H](Cc2ccc(O)cc2)C(=O)N[C@@H](Cc2ccccc2)C(=O)N1)C(=O)N[C@H](C(=O)N[C@@H](Cc1c[nH]c2ccccc12)C(=O)O)[C@@H](C)CC` [Trp-Ile-Ile-Asp-Leu-Hisc(Cys-Ser-Ser-Val-Tyr-Phe-Cys)] (H-CSSVYFCHLDIIW-OH; disulfide 1-7) is 5.70. As to `CC[C@H](C)[C@H](NC(=O)[C@H](CC(=O)O)NC(=O)[C@H](CC(C)C)NC(=O)[C@H](Cc1c[nH]cn1)NC(=O)[C@@H]1CSSC[C@H](N)C(=O)N[C@@H](CO)C(=O)N[C@@H](C(C)C)C(=O)N[C@@H](Cc2ccc(O)cc2)C(=O)N[C@@H](Cc2ccccc2)C(=O)N1)C(=O)N[C@H](C(=O)N[C@@H](Cc1c[nH]c2ccccc12)C(=O)O)[C@@H](C)CC` [Trp-Ile-Ile-Asp-Leu-Hisc(Cys-Ser-Val-Tyr-Phe-Cys)] (H-CSVYFCHLDIIW-OH; disulfide 1-6), the pIC50 is 5.42.

These data come from BindingDB's records for doi:10.1016/S0960-894X(01)80156-6 (1994).
